Source: patent publication US20210052608A1, “METHODS OF TREATING BACTERIAL INFECTIONS WITH MINOCYCLINE” (Melinta Therapeutics, Inc., priority 2018, published 2021)
“Also recorded” adds a separate entry of the source.

Experiments:
[1] = Plasma pharmacokinetics of minocycline, single ascending dose (SAD) phase, 1 hour intravenous infusion; set-up: species or system human (healthy adult subjects); settings: human, in vivo; for half-life: mean, N=8
Method: (§1) This example describes outcomes among healthy adult subjects in a randomized, double-blind, placebo-controlled, single- and multiple ascending dose (SAD/MAD) study of 6 intravenous doses (cohorts) ranging from 100 mg to 600 mg of minocycline. […] Within each cohort, subjects received a single dose on Day 1, followed by a loading dose on Day 4, then 7 days of twice-daily dosing (Days 4-10), followed by a single dose on Day 11 as shown in Table 1. Within each cohort, subjects were randomly assigned to minocycline (n=8) or normal saline placebo (n=2). Serial blood and urine samples were collected for pharmacokinetic assessment. All infusions were administered over 1 hour. Plasma samples were obtained at 1 (end-of-infusion), 2, 4, 8, 12, 18, 24, 36, 48, and 72 hours after the start of dosing after single or multiple doses and assayed for minocycline content using a validated HPLC/MS method. Concentration of minocycline in healthy volunteers after a one hour IV infusion is shown in FIG. 1, while concentration of minocycline in healthy volunteers after a loading dose then twice daily dosing for seven days is shown in FIG. 2.

[2] = Plasma pharmacokinetics of minocycline, twice-daily ascending dose (MAD) phase, loading dose then BID dosing for 7 days; set-up: species or system human (healthy adult subjects); settings: human, in vivo; for AUC(0-t): AUC0-t; for clearance: Cl (plasma clearance); for Vd: Vss (volume of distribution at steady state); for half-life: mean; for Cmax: iv
Method: as §1

[3] = Safety and tolerability (adverse events) in the SAD/MAD study of intravenous minocycline; type: in vivo, human (healthy adult subjects)
Method: This example describes outcomes among healthy adult subjects in a randomized, double-blind, placebo-controlled, single- and multiple ascending dose (SAD/MAD) study of 6 intravenous doses (cohorts) ranging from 100 mg to 600 mg of minocycline. Each cohort consisted of 10 subjects (8 active drug and 2 placebo). Within each cohort, subjects received a single dose on Day 1, followed by a loading dose on Day 4, then 7 days of twice-daily dosing (Days 4-10), followed by a single dose on Day 11 as shown in Table 1. Within each cohort, subjects were randomly assigned to minocycline (n=8) or normal saline placebo (n=2). Serial blood and urine samples were collected for pharmacokinetic assessment.
Safety was assessed throughout the study. Of the adverse events (AE) observed in more than 10% of subjects, the vast majority were assessed by the investigator as likely to be related to study drug (Table 5). A total of 21 subjects out of 57 discontinued the trial. Six of 10 subjects in cohort 4 discontinued during the MAD portion (400 mg BID) of the trial due to mild to moderate dizziness. Dosing was discontinued in the remaining 4 subjects in that cohort and cohorts 5 and 6 were limited to 300 mg BID for the MAD portion of the trial. Four subjects in cohort 6 (600 mg/300 mg) discontinued due to nausea.

[4] = Plasma pharmacokinetics of minocycline, single ascending dose (SAD) phase, 1 hour intravenous infusion; set-up: species or system human (healthy adult subjects); settings: human, in vivo; single 600 mg IV dose, mean, N=9

Structure (SMILES): CN(C)c1ccc(O)c2c1C[C@H]1C[C@H]3[C@H](N(C)C)C(O)=C(C(N)=O)C(=O)[C@@]3(O)C(O)=C1C2=O [minocycline]
- Dose proportionality of exposure ([1]; iv): increased in a dose proportional fashion with exception of the 500 mg dose
- AUC(0-inf) ([1]; iv, 100 mg): 9730 ng·h/mL
- clearance ([1]; iv, 100 mg): 175 mL/min
- AUC(0-inf) ([1]; iv, 200 mg): 25900 ng·h/mL
- clearance ([1]; iv, 200 mg): 137 mL/min
- AUC(0-inf) ([1]; iv, 300 mg): 39200 ng·h/mL
- clearance ([1]; iv, 300 mg): 138 mL/min
- AUC(0-inf) ([1]; iv, 400 mg): 63600 ng·h/mL
- clearance ([1]; iv, 400 mg): 112 mL/min
- AUC(0-inf) ([1]; iv, 500 mg): 53800 ng·h/mL
- clearance ([1]; iv, 500 mg): 171 mL/min
- AUC(0-inf) ([1]; iv, 600 mg): 83000 ng·h/mL
- clearance ([1]; iv, 600 mg): 135 mL/min
- half-life ([1]; single 100 mg IV dose): 11.1 h
- half-life ([1]; single 200 mg IV dose): 13.7 h
- half-life ([1]; single 300 mg IV dose): 16.6 h
- half-life ([1]; single 400 mg IV dose): 17.6 h
- half-life ([1]; single 500 mg IV dose): 14.4 h
- AUC(0-t) ([2]; 100 mg): 27500 ng·h/mL
- clearance ([2]; 100 mg): 58.2 mL/min
- Vd ([2]; 100 mg): 72 L
- half-life ([2]; 100 mg, single dose 100 mg, BID dosing 100 mg, N=6): 15.9 h
- AUC(0-t) ([2]; 200 mg): 80700 ng·h/mL
- clearance ([2]; 200 mg): 41.3 mL/min
- Vd ([2]; 200 mg): 58.4 L
- half-life ([2]; 200 mg, single dose 200 mg, BID dosing 200 mg, N=6): 18.2 h
- AUC(0-t) ([2]; 300 mg): 174000 ng·h/mL
- clearance ([2]; 300 mg): 32 mL/min
- Vd ([2]; 300 mg): 47 L
- half-life ([2]; 300 mg, single dose 300 mg, BID dosing 300 mg, N=7): 19.8 h
- half-life ([2]; 300 mg, single dose 500 mg, BID dosing 300 mg, N=7): 18.1 h
- half-life ([2]; 300 mg, single dose 600 mg, BID dosing 300 mg, N=4): 20.2 h
- half-life ([2]; 300 mg, single dose 300, 500, or 600 mg (pooled), BID dosing 300 mg, N=18): 19.2 h
- clearance [2]: 44 mL/min
- Vd [2]: 58.1 L
- Cmax ([2]; 100 mg): 1710 ng/mL
- Cmax ([2]; 200 mg): 4590 ng/mL
- Cmax ([2]; 300 mg): 8910 ng/mL
- Maximum tolerated multi-dose ([3]; administered twice daily, IV): 300 mg
- Subjects discontinued due to nausea in cohort 6 ([3]; cohort 6 (600 mg/300 mg)): Four
- Subjects reporting study drug related adverse events, % ([3]; human, in vivo): 79.9%
- Subjects who discontinued the trial, total ([3]; human, in vivo): 21
- Subjects with dizziness, % ([3]; human, in vivo): 59.4%
- Subjects with dizziness, number ([3]; human, in vivo): 41
- Subjects with moderate nausea and/or dizziness, number ([3]; human, in vivo): 9
- Subjects with nausea, % ([3]; human, in vivo): 50.7%
- Subjects with nausea, number ([3]; human, in vivo): 35
- Subjects discontinued from study drug in the 400 mg cohort (cohort 4) ([3]; human, in vivo, 7 days): 6
- Tolerability of single intravenous doses ([3]; single IV doses up to 600 mg): tolerated reasonably well
- Serious adverse events ([3]; whole SAD/MAD study, 100 mg to 600 mg IV): No serious adverse events occurred; also recorded: No serious adverse events (SAEs) were reported
- Most common adverse effects ([3]; whole study): mild nausea and dizziness
- half-life [4]: 17.3 h
